From PMC9362525 (Diabetologia, 2022)
Where two headings read alike, the source gives them in different places.

Assays:
[1] = format: in vivo, human; details: 6-week treatment period
HHTg rats = format: in vivo, rat; details: 10 mg/kg/day, 8 weeks
patients with T2D = format: in vivo, human
HUVECs = format: cell-based, human
patients with T2D and HF = format: in vivo, human
[2] = tested on: patients with T2D and established CVD; format: in vivo, human
isolated human islets = format: cell-based; details: metformin added after 0.5 day, n=7
[3] = tested on: male C57BL/6 mice on 45% HFD; details: mouse, in vivo
EndocBH5 = format: cell-based, human; details: 96 well plates
[4] = tested on: adults with type 2 diabetes; format: in vivo, human
HCAECs = format: cell-based, human
cultured human podocytes = format: cell-based
[5] = tested on: isolated human adipocytes; format: cell-based; details: recombinant protein
[6] = tested on: people with type 2 diabetes; format: in vivo, human; details: 15 mg, 28 weeks

## CCOc1ccc(Cc2cc([C@@H]3O[C@H](CO)[C@@H](O)[C@H](O)[C@H]3O)ccc2Cl)cc1 [DAPA, dapagliflozin]
T2DM and NGT subjects; NGT
  fractional renal extraction of glucose: 1.62± 1.4
  renal glucose uptake: 0.27 ± 0.08 mg/kg.min
T2DM and NGT subjects; T2DM
  fractional renal extraction of glucose: 2.99±1.0
  renal glucose uptake: 0.347 ± 0.06 mg/kg.min
[1]
  mild hypoglycemia occurrence: once

## OC[C@H]1O[C@@H](c2ccc(Cl)c(Cc3ccc(O[C@H]4CCOC4)cc3)c2)[C@H](O)[C@@H](O)[C@@H]1O [empagliflozin]
HHTg rats
  non-fasting glucose and insulin: markedly decreased
  serum triglycerides levels: reduced
Patients with T2D; cardiac MRI
  ∆LVEF Rest, E vs I: -0±2%
  ∆LVEF Rest, treatment vs washout: 2 ±1%
  ∆LVPFR Rest, E vs I: -55 ± 19 mL/s
  ∆LVPFR Rest, treatment vs washout: -38 ± 19 mL/s
Patients with T2D; chronotropic stress
  ∆LVEF Stress, E vs I: 1±1%
  ∆LVEF Stress, treatment vs washout: -1±2%
  ∆LVPFR Stress, E vs I: -11 ± 47 mL/s
  ∆LVPFR Stress, treatment vs washout: -4 ± 45 mL/s
Patients with T2D; fasting, end of 5 weeks
  3-OH butyrate: 0.27 ± 0.03 mM
  FFAs: 0.60 ± 0.03 mM
  serum insulin: 103 ± 14 pM
HUVECs
  expression of inflammatory markers: did not significantly impact
Patients with T2D and HF; 25 mg, week 48, EFFORT-2
  reduction of KIM-1 levels compared to placebo: 38%
Patients with T2D and HF; week 24, EFFORT-1
  LVEDD difference from placebo: -7.88
Patients with T2D and HF; week 48, EFFORT-1
  LVEDD difference from placebo: -4.40
Patients with T2D and HF; week 48, EFFORT-2
  posterior wall diameter difference from placebo: -2.29
[2]; high baseline risk group
  patients with improvement in KDIGO CKD risk: 27.1%
[2]; high risk baseline group
  patients with worsening KDIGO CKD risk: 23.3%
[2]; low risk baseline group, 10, 25 mg pooled
  patients with worsening KDIGO CKD risk: 26.0%
[2]; moderate baseline risk group
  patients with improvement in KDIGO CKD risk: 24.6%
[2]; moderate risk baseline group
  patients with worsening KDIGO CKD risk: 24.4%
[2]; very high baseline risk group
  patients with improvement in KDIGO CKD risk: 26.2%

## CN(C)C(=N)N=C(N)N [metformin]
Isolated human islets
  reduction of insulin secretion vs 1 day palmitate only: 18%
[3]
  loss of excess body weight vs untreated mice: 30%

## CC[C@H](C)[C@H](NC(=O)[C@H](CC(C)C)NC(=O)[C@H](Cc1c[nH]c2ccccc12)NC(=O)[C@H](CCC(N)=O)NC(=O)[C@@H](NC(=O)[C@H](Cc1ccccc1)NC(=O)[C@H](C)NC(=O)[C@H](CCCCNC(=O)COCCOCCNC(=O)COCCOCCNC(=O)CC[C@H](NC(=O)CCCCCCCCCCCCCCCCCCC(=O)O)C(=O)O)NC(=O)[C@H](CCC(N)=O)NC(=O)[C@H](C)NC(=O)[C@@H](NC(=O)[C@H](CCCCN)NC(=O)[C@H](CC(=O)O)NC(=O)[C@H](CC(C)C)NC(=O)C(C)(C)NC(=O)[C@@H](NC(=O)[C@H](CO)NC(=O)[C@H](Cc1ccc(O)cc1)NC(=O)[C@H](CC(=O)O)NC(=O)[C@H](CO)NC(=O)[C@@H](NC(=O)[C@H](Cc1ccccc1)NC(=O)[C@@H](NC(=O)CNC(=O)[C@H](CCC(=O)O)NC(=O)C(C)(C)NC(=O)[C@@H](N)Cc1ccc(O)cc1)[C@@H](C)O)[C@@H](C)O)[C@@H](C)CC)[C@@H](C)CC)C(C)C)C(=O)N[C@@H](C)C(=O)NCC(=O)NCC(=O)N1CCC[C@H]1C(=O)N[C@@H](CO)C(=O)N[C@@H](CO)C(=O)NCC(=O)N[C@@H](C)C(=O)N1CCC[C@H]1C(=O)N1CCC[C@H]1C(=O)N1CCC[C@H]1C(=O)N[C@@H](CO)C(N)=O [tirzepatide]
EndocBH5
  increased insulin secretion over high glucose: > 3 fold
[4]; 5 mg once weekly, random effects
  MD in triglycerides vs GLP-1 receptor agonists: -12.51 mg/dL
[4]; 15 mg once weekly
  MD in triglycerides vs GLP-1 receptor agonists: -24.98 mg/dL

## CCL5
HCAECs
  endothelial function: displayed endothelial dysfunction

## TGF-β
Cultured human podocytes
  suppression of Tcf21 expression: 58%

## oncostatin-M
[5]
  stimulation of basal lipolysis: +47%

## tirzepatide [TZP]
[6]
  insulin sensitivity (M-value), first and second phase ISR and beta-cell glucose sensitivity during EGC and HGC: more than SEMA and placebo
